One data set addresses ATX (Homo sapiens, UniProt Q13822). In words: Enzyme activity screening in vitro with LPC as substrate (Amplex Red fluorescence). The conditions noted are these: inhibitory activity against ATX. It counts as biochemical. The source says: Analysis In Vitro: LPC was Used as Substrate for Screening Enzyme Activity
Principle: Lysophosphatidylcholine (LPC) as substrate is hydrolyzed by using the activity of lysoPLD enzyme, to produce lysophosphatidic acid (LPA) and choline, which is oxidized to produce H2O2 under the action of choline oxidase. In presence of horse radish peroxidase (HPR), Amplex Red reagent is reacted with H2O2 in a quantitative chemistry ratio of 1 to 1, to produce strong fluorescence products, which are detected by a fluorescent quantitative test.
20 μl of the above mixed solution 1 was added to each hole of an experiment board, […]. The compounds diluted with DMSO were transferred into an experiment board with Echo550. The reaction buffer solution was used for preparing a mixed solution 2 of […] LPC and 400 μM Amplex Red in a final concentration. 20 μl of the above mixed solution 2 was added to each hole of the experiment board. After addition, the experiment board was shook for 30 seconds on a shaker, and incubated for 30 minutes. Envision was used to read the fluorescence signals with an exciting light at 530 nm and emitted light at 590 nm.

Data set [1] is described as follows: Pharmacokinetics test in mice. It counts as in vivo. The conditions noted are these: male SD mice; for F: absolute bioavailability, oral 5 mg/kg vs intravenous 1 mg/kg; for AUC / half-life: mouse, plasma. The text has this: Pharmacokinetics Test in Mice
Male SD mice were selected for pharmacokinetics test study, plasma concentration at different time points were quantitatively determined by LC/MS/MS method after the mice were intravenously injected and orally administrated with the compounds to be tested, thereby evaluating pharmacokinetics characteristic of the compounds to be tested in SD mice.
SD mice (free food and drink, 6 to 8 weeks old) were intravenously administrated via a foot injection with a clear solution of the compounds to be tested, alternatively, SD mice (free food and drink, 6 to 8 week old) were intragastrically administrated with a suspension of the compounds to be tested. Blood samples were collected from the tail veins of the mice 0.083, 0.25, 0.5, 1, 2, 4, 6, 8, 10, and 24 hours after administration, and each sampling was 0.15 mL. All collected blood samples were placed into centrifuge tubes with EDTA-K2, turned upside and down to mix the anticoagulant with the blood well. The plasma was separated by centrifugation at 1500 g for 10 min at 4° C. within […]. The plasma sample was transferred into a new centrifuge tube and stored at −90° C. to −60° C. until the analysis was performed. LC-MS/MS was used to measure the blood concentration of the compounds to be tested of the present disclosure, and the pharmacokinetic parameters, as well as absolute bioavailability, were calculated by a non-compartment model in Pharsight Phoenix 8.0 software, as shown in Table 2.

Where [2] appears, read: Intravenous injection (1 mg/kg).

Each structure is given as a SMILES string.

The term IC50 denotes the concentration that gives 50% inhibition. Low values mean greater potency in that assay, high ones weaker potency in that assay. A word on the AUC: it is the area under the concentration-time curve, a measure of exposure. A word on the half-life: it is how long it takes for the measured level to halve. Higher therefore signals slow loss.

For `CCc1nc2sc(C3CCN(CC(=O)NC4CC(O)C4)CC3)cn2c1N(CC)c1nc(-c2ccc(F)cc2)c(C#N)s1` (centres unmarked) [Embodiment 5, 2-(4-(5-((5-cyano-4-(4-fluorophenyl)thiazol-2-yl)(ethyl)amino)-6-ethylimidazo[2,1-b]thiazol-2-yl]piperidin-1-yl)-N-(3-hydroxycyclobutyl)acetamide], the IC50 on ATX is 0.01 to 100 nM.

Take `CCc1nc2sc(C3CCN(CC(=O)NC4(CO)CC4)CC3)cn2c1N(CC)c1nc(-c2ccc(F)cc2)c(C#N)s1` [Embodiment 12, 2-(4-(5-((5-cyano-4-(4-fluorophenyl)thiazol-2-yl)(ethyl)amino)-6-ethylimidazo[2,1-b]thiazol-2-yl)piperidin-1-yl)-N-(1-(hydroxymethyl)cyclopropyl)acetamide]: on ATX, the IC50 is 0.01 to 100 nM.

As for `CCc1nc2sc(C3CCN(CC(=O)NCC(F)F)CC3)cn2c1N(CC)c1nc(-c2ccc(F)cc2)c(C#N)s1` [Embodiment 11, 2-(4-(5-((5-cyano-4-(4-fluorophenyl)thiazol-2-yl)(ethyl)amino)-6-ethylimidazo[2,1-b]thiazol-2-yl)piperidin-1-yl)-N-(2,2-difluoroethyl)acetamide], the IC50 on ATX was 0.01 to 100 nM. In data set [1], this compound came in with an F of 42%. In data set [1] (setting [2]), the AUC stood at 907 ng·h/mL and the half-life was 4.69 h. In data set [1] (Oral administration (5 mg/kg)), the exposure (AUC) is 1730 ng·h/mL and the half-life was 4.4 h.

Compound `CCc1nc2sc(C3CCN(CC(=O)NCC4CC4)CC3)cn2c1N(CC)c1nc(-c2ccc(F)cc2)c(C#N)s1` [Embodiment 18, 2-(4-(5-((5-cyano-4-(4-fluorophenyl)thiazol-2-yl)(ethyl)amino)-6-ethylimidazo[2,1-b]thiazol-2-yl)piperidin-1-yl)-N-(cyclopropylmethyl)acetamide] yielded a concentration for half-maximal inhibition (IC50) against ATX of 100 to 500 nM.

With `CCc1nc2sc(C3CCN(CC(=O)NCC4CCC4)CC3)cn2c1N(CC)c1nc(-c2ccc(F)cc2)c(C#N)s1` [Embodiment 19, 2-(4-(5-((5-cyano-4-(4-fluorophenyl)thiazol-2-yl)(ethyl)amino)-6-ethylimidazo[2,1-b]thiazol-2-yl)piperidin-1-yl)-N-(cyclobutylmethyl)acetamide], at ATX, the IC50 lay within 0.01 to 100 nM.

Turning to `[2H]C([2H])([2H])C([2H])([2H])N(c1nc(-c2ccc(F)cc2)c(C#N)s1)c1c(CC)nc2sc(C3CCN(CC(=O)N4CC(O)C4)CC3)cn12` [Embodiment 7, 2-((ethyl-d5)(6-ethyl-2-(1-(2-(3-hydroxyazetidin-1-yl)-2-oxoethyl)piperidin-4-yl)imidazo[2,1-b]thiazol-5-yl)amino)-4-(4-fluorophenyl)thiazole-5-carbonitrile], the 50% inhibitory concentration (IC50) against ATX lay within 0.01 to 100 nM. In data set [1], this compound returned an F of 65%. Further, in data set [1] (setting [2]), the AUC was 1480 ng·h/mL and the half-life is 3.97 h. Also, in data set [1] (Oral administration (5 mg/kg)), the AUC came to 4810 ng·h/mL and the half-life is 2.81 h.

Regarding `CCc1nc2sc(C3CCN(CC(=O)N4CC(O)C4)CC3)cn2c1N(CC(F)(F)F)c1nc(-c2ccc(F)cc2)c(C#N)s1` [Embodiment 6, 2-((6-ethyl-2-(1-(2-(3-hydroxyazetidin-1-yl)-2-oxoethyl)piperidin-4-yl)imidazo[2,1-b]thiazol-5-yl)(2,2,2,-trifluoroethyl)amino)-4-(4-fluorophenyl)thiazole-5-carbonitrile], on ATX, the concentration for half-maximal inhibition (IC50) was in the range of 0.01 to 100 nM.

For `CCc1nc2sc(C3CCN(CC(=O)N(C)CCC#N)CC3)cn2c1N(CC)c1nc(-c2ccc(F)cc2)c(C#N)s1` [Embodiment 10, 2-(4-(5-((5-cyano-4-(4-fluorophenyl)thiazol-2-yl)(ethyl)amino)-6-ethylimidazo[2,1-b]thiazol-2-yl)piperidin-1-yl)-N-(2-cyanoethyl)-N-methylacetamide], the IC50 on ATX lay within 0.01 to 100 nM.

Take `CCc1nc2sc(C3CCN(CC(=O)NCC4(O)CC4)CC3)cn2c1N(CC)c1nc(-c2ccc(F)cc2)c(C#N)s1` [Embodiment 15, 2-(4-(5-((5-cyano-4-(4-fluorophenyl)thiazol-2-yl)(ethyl)amino)-6-ethylimidazo[2,1-b]thiazol-2-yl)piperidin-1-yl)-N-((1-hydroxycyclopropyl)methyl)acetamide]: the IC50 against ATX lay within 100 to 500 nM.

Take `CCc1nc2sc(C3CCN(CC(=O)NCC4(O)CCC4)CC3)cn2c1N(CC)c1nc(-c2ccc(F)cc2)c(C#N)s1` [Embodiment 16, 2-(4-(5-((5-cyano-4-(4-fluorophenyl)thiazol-2-yl)(ethyl)amino)-6-ethylimidazo[2,1-b]thiazol-2-yl)piperidin-1-yl)-N-((1-hydroxycyclobutyl)methyl) acetamide]: the IC50 at ATX lay within 0.01 to 100 nM.

The compound `CCc1nc2sc(C3CCN(CC(=O)NCCO)CC3)cn2c1N(CC)c1nc(-c2ccc(F)cc2)c(C#N)s1` [Embodiment 3, 2-(4-(5-((5-cyano-4-(4-fluorophenyl)thiazol-2-yl)(ethyl)amino)-6-ethylimidazo[2,1-b]thiazol-2-yl]piperidin-1-yl)-N-(2-hydroxyethyl)acetamide] yielded an IC50 at ATX of 100 to 500 nM.

As for `CCc1nc2sc(C3CCN(CC(=O)NC(C)CO)CC3)cn2c1N(CC)c1nc(-c2ccc(F)cc2)c(C#N)s1` (centres unmarked) [Embodiment 13, 2-(4-(5-((5-cyano-4-(4-fluorophenyl)thiazol-2-yl)(ethyl)amino)-6-ethylimidazo[2,1-b]thiazol-2-yl)piperidin-1-yl)-N-(1-hydroxypropan-2-yl)acetamide], the half-maximal inhibitory concentration (IC50) against ATX is 100 to 500 nM.

The compound `CCc1nc2sc(C3CCN(CC(=O)NCC(C)(C)CO)CC3)cn2c1N(CC)c1nc(-c2ccc(F)cc2)c(C#N)s1` [Embodiment 9, 2-(4-(5-((5-cyano-4-(4-fluorophenyl)thiazol-2-yl)(ethyl)amino)-6-ethylimidazo[2,1-b]thiazol-2-yl)piperidin-1-yl)-N-(3-hydroxy-2,2-dimethylpropyl)acetamide] gave a 50% inhibitory concentration (IC50) against ATX of 0.01 to 100 nM.

As for `CCc1nc2sc(C3CCN(CC(=O)NC(C)(C)CO)CC3)cn2c1N(CC)c1nc(-c2ccc(F)cc2)c(C#N)s1` [Embodiment 14, 2-(4-(5-((5-cyano-4-(4-fluorophenyl)thiazol-2-yl)(ethyl)amino)-6-ethylimidazo[2,1-b]thiazol-2-yl)piperidin-1-yl)-N-(1-hydroxy-2-methylpropan-2-yl)acetamide], on ATX, the IC50 lay in the range of 0.01 to 100 nM.

At ATX, `CCc1nc2sc(C3CCN(CC(=O)NC4CC(F)(F)C4)CC3)cn2c1N(CC)c1nc(-c2ccc(F)cc2)c(C#N)s1` [Embodiment 17, 2-(4-(5-((5-cyano-4-(4-fluorophenyl)thiazol-2-yl)(ethyl)amino)-6-ethylimidazo[2,1-b]thiazol-2-yl)piperidin-1-yl)-N-(3,3-difluorocyclobutyl)acetamide] displayed an IC50 of 100 to 500 nM.

As to `CCc1nc2sc(C3CCN(CC(=O)NC4COC4)CC3)cn2c1N(c1nc(-c2ccc(F)cc2)c(C#N)s1)C(C)C` [Embodiment 27, 2-(4-(5-((5-cyano-4-(4-fluorophenyl)thiazol-2-yl)(isopropyl)amino)-6-ethylimidazo[2,1-b]thiazol-2-yl)piperidin-1-yl)-N-(oxacyclobut-3-yl)acetamide], the concentration for half-maximal inhibition (IC50) on ATX was 0.01 to 100 nM.

On ATX, `CCc1nc2sc(C3CCN(CC(=O)NCC(C)(C)O)CC3)cn2c1N(CC)c1nc(-c2ccc(F)cc2)c(C#N)s1` [Embodiment 8, 2-(4-(5-((5-cyano-4-(4-fluorophenyl)thiazol-2-yl)(ethyl)amino)-6-ethylimidazo[2,1-b]thiazol-2-yl)piperidin-1-yl)-N-(2-hydroxy-2-methylpropyl)acetamide] registered an IC50 of 0.01 to 100 nM.

In turn, `CCc1nc2sc(C3CCN(CC(=O)NC4CCOCC4)CC3)cn2c1N(c1nc(-c2ccc(F)cc2)c(C#N)s1)C(C)C` [Embodiment 26, 2-(4-(5-((5-cyano-4-(4-fluorophenyl)thiazol-2-yl)(isopropyl)amino)-6-ethylimidazo[2,1-b]thiazol-2-yl)piperidin-1-yl)-N-(tetrahydro-2H-pyran-4-yl)acetamide] returned an IC50 against ATX of 0.01 to 100 nM.

`CCc1nc2sc(C3CCN(CC(=O)N(C)CCO)CC3)cn2c1N(CC)c1nc(-c2ccc(F)cc2)c(C#N)s1` [Embodiment 4, 2-(4-(5-((5-cyano-4-(4-fluorophenyl)thiazol-2-yl)(ethyl)amino)-6-ethylimidazo[2,1-b]thiazol-2-yl]piperidin-1-yl)-N-(2-hydroxyethyl)-N-methylacetamide] gave an IC50 against ATX of 0.01 to 100 nM.

For the origin of these results see patent publication US20240002401A1, “IMIDAZOTHIAZOLE COMPOUNDS, PHARMACEUTICAL COMPOSITIONS, AND USES THEREOF” (GUANGZHOU HENOVCOM BIOSCIENCE CO., LTD., priority 2020, published 2024).
